# US20230357179A1, “RAF KINASE INHIBITORS AND METHODS OF USE THEREOF” (Deciphera Pharmaceuticals, LLC, priority 2021, published 2023)
# Assays:
# Type in all cases: cell-based
# WM3629 cells = experiment: WM3629 cell proliferation assay (1), resazurin, 96-well; conditions: inhibition of cell proliferation
# Method: WM3629 Cell Proliferation Assay (1)
# WM3629 cells (#WM3629-01-0001) are obtained from Rockland Immunochemicals Inc (Gilbertsville, PA). Briefly, cells were grown in MCDB 153 medium (Sigma, #M7403, St. Louis, MO) supplemented with 20% Leibovitz's L-15 (ThermoFisher #11415-064, Waltham, MA), 2% heat inactivated fetal bovine serum (ThermoFisher, #A3840001, Waltham, MA), 5 μg/mL Insulin (Bovine Pancreas) (Sigma, #I0516, St. Louis, MO), 1.68 mM Calcium Chloride (Sigma, #C-34006, St. Louis, MO) and 1% Penicillin/Streptomycin/L-Glutamine (ThermoFisher #10378016, Waltham, MA) at 37° C., 5% CO2, and 95% humidity. Cells are expanded until reaching 70-95% confluency at which point they are subcultured or harvested for assay use. A serial dilution of test compound is dispensed into a 96-well black clear bottom plate in triplicate. Four thousand five hundred cells are added per well in 200 μL complete growth medium in the 96-well plate. Plates are incubated for 67-72 hours at 37° C., 5% CO2, and 95% humidity. At the end of the incubation, 40 μL of a 440 μM solution of resazurin (Sigma, #199303, St. Louis, MO) in PBS is added to each well of the plate and plates are incubated for an additional 6-7 hours at 37° C., 5% CO2, and 95% humidity. Plates are read on a Synergy2 or equivalent reader (Biotek, Winooski VT) using an excitation of 540 nm and an emission of 600 nm. Data is analyzed using Prism software (GraphPad, San Diego, CA) to calculate IC50 values.
# WM3928 cells = experiment: WM3928 cell proliferation assay (2), resazurin, 384-well; conditions: inhibition of cell proliferation, 67-72 hours
# Method: WM3928 Cell Proliferation Assay (2)
# WM3928 cells (#WM3928-01-0001) are obtained from Rockland Immunochemicals Inc (Gilbertsville, PA). Briefly, cells were grown in MCDB 153 medium (Sigma, #M7403, St. Louis, MO) supplemented with 20% Leibovitz's L-15 (ThermoFisher #11415-064, Waltham, MA), 2% heat inactivated fetal bovine serum (ThermoFisher, #A3840001, Waltham, MA), 5 μg/mL Insulin (Bovine Pancreas) (Sigma, #I0516, St. Louis, MO), 1.68 mM Calcium Chloride (Sigma, #C-34006, St. Louis, MO) and 1% Penicillin/Streptomycin/L-Glutamine (ThermoFisher #10378016, Waltham, MA) at 37° C., 5% CO2, and 95% humidity. Cells are expanded until reaching 70-95% confluency at which point they are sub-cultured or harvested for assay use. Using the Beckman Coulter Echo 650, a serial dilution of test compound is dispensed into a 384-well black clear bottom plate in triplicate. Seven hundred fifty cells are added per well in 50 μL complete growth medium in the 384-well plate. Plates are incubated for 67-72 hours at 37° C., 5% CO2, and 95% humidity. At the end of the incubation, 10 μL of a 440 μM solution of resazurin (Sigma, #199303, St. Louis, MO) in PBS is added to each well of the plate and plates are incubated for an additional 3-6 hours at 37° C., 5% CO2, and 95% humidity. Plates are read on a Synergy2 or equivalent reader (Biotek, Winooski VT) using an excitation of 540 nm and an emission of 600 nm. Data is analyzed using Prism software (GraphPad, San Diego, CA) to calculate IC50 values.
# H2405 cells = experiment: H2405 cell proliferation assay (2), resazurin, 384-well; conditions: Homo sapiens, NCI-H2405, inhibition of cell proliferation, 67-72 h
# Method: H2405 Cell Proliferation Assay (2)
# H2405 cells (catalog #CRL-5994) are obtained from the American Type Culture Collect (ATTC, Manassas, VA). Briefly, cells were grown in RPMI 1640 supplemented with 5% characterized fetal bovine serum (Invitrogen, Carlsbad, CA) and 1% Penicillin/Streptomycin/L-Glutamine at 37° C., 5% CO2, and 95% humidity. Cells are expanded until reaching 70-95% confluency at which point they are sub-cultured or harvested for assay use. A serial dilution of test compound is dispensed into a 384-well black clear bottom plate in triplicate. Seven hundred fifty cells are added per well in 50 μL complete growth medium in the 384-well plate. Plates are incubated for 67-72 h at 37° C., 5% CO2, and 95% humidity. At the end of the incubation, 10 μL of a 440 μM solution of resazurin (Sigma, St. Louis, MO) in PBS is added to each well of the plate and plates are incubated for an additional 5-6 h at 37° C., 5% CO2, and 95% humidity. Plates are read on a Synergy2 or equivalent reader (Biotek, Winooski VT) using an excitation of 540 nm and an emission of 600 nm. Data is analyzed using Prism software (GraphPad, San Diego, CA) to calculate IC50 values
# Miapaca-2 cells = experiment: MiaPaca-2 combination cell proliferation assay (1) with cobimetinib, 96-well; conditions: inhibition of cell proliferation, read-out: MiaPaca-2 Combo (1) IC50
# Method: MiaPaca-2 Combination Cell proliferation Assay (1)
# Miapaca-2 cells (catalog #CRL-1420) are obtained from the American Type Culture Collect (ATCC, Manassas, VA). Briefly, cells were grown in DMEM supplemented with 10% characterized fetal bovine serum (Invitrogen, Carlsbad, CA), 2.5% New Zealand sourced horse serum and 1% Penicillin/Streptomycin/L-Glutamine at 37° C., 5% CO2, and 95% humidity. Cells are expanded until reaching 70-95% confluency at which point they are subcultured or harvested for assay use. A serial dilution of test compound was dispensed into multiple 96-well black clear bottom plates in triplicate. A serial dilution of complete growth medium containing cobimetinib was prepared at twice the final concentration and 100 μL was dispensed across the test compound titration in triplicate. Three thousand cells are added per well in 100 μL complete growth medium in each 96-well plate. Plates are incubated for 67-72 hours at 37° C., 5% CO2, and 95% humidity. At the end of the incubation, 40 μL of a 440 μM solution of resazurin (Sigma, St. Louis, MO) in PBS is added to each well of the plate and plates are incubated for an additional 5-7 hours at 37° C., 5% CO2, and 95% humidity. Plates are read on a Synergy2 or equivalent reader (Biotek, Winooski VT) using an excitation of 540 nm and an emission of 600 nm. Drug synergy was assessed via BLISS analysis in the Combenefit software (Cancer Research UK Cambridge Institute, Cambridge, UK). Data is analyzed using Prism software (GraphPad, San Diego, CA) to calculate IC50 values. Shifts in test compound IC50 values are reported from top-constrained combination therapy curves.
IC50 (Miapaca-2 cells) [nM],Structure (SMILES),IC50 (WM3629 cells) [nM],other results
,Cc1ccc(NC(=O)N2CC[C@H](C(C)C)C2)cc1-c1cncc(-c2cc(NC(=O)C3CC3)ncn2)c1 [Example 221],≤ 100,
,Cc1cc(F)c(NC(=O)N2CC[C@H](C(F)(F)F)C2)cc1-c1cncc(-c2cc(NC(=O)C3CC3)ncn2)c1 [Example 216],,IC50 (WM3928 cells): ≤ 100 nM; IC50 (H2405 cells): ≤ 100 nM
100 to 500,Cc1cc(F)c(NC(=O)NCCC2(C)CC2)cc1-c1cc(OCCO)nc(-c2ccnc(NC(=O)C3CC3)c2)c1 [Example 76],,
,Cc1ccc(NC(=O)N2CC[C@H](C(F)(F)F)C2)cc1-c1cncc(-c2cc(NC(=O)C3CC3)ncn2)c1 [Example 195],,IC50 (WM3928 cells): ≤ 100 nM; IC50 (H2405 cells): ≤ 100 nM
≤ 100,CC(=O)Nc1cc(-c2cc(-c3cc(NC(=O)NC4CCC(F)(F)CC4)c(F)cc3C)cc(OCCO)n2)ccn1 [Example 63],,
≤ 100,CC(=O)Nc1cc(-c2cc(-c3cc(NC(=O)NCCC4(C)CC4)c(F)cc3C)cc(OCCO)n2)ccn1 [Example 33],,
100 to 500,Cc1ccc(NC(=O)N2CC[C@@H](C(F)(F)F)C2)cc1-c1cccc(-c2cc(NC(=O)C3CC3)ncn2)c1 [Example 201],≤ 100,
,Cc1ccc(NC(=O)N2CC[C@@H](C(C)C)C2)cc1-c1cncc(-c2cc(NC(=O)C3CC3)ncn2)c1 [Example 217],≤ 100,
100 to 500,Cc1ccc(NC(=O)N2CC[C@H](C(F)(F)F)C2)cc1-c1cccc(-c2cc(NC(=O)C3CC3)ncn2)c1 [Example 200],≤ 100,
≤ 100,CC(=O)Nc1cc(-c2cc(-c3cc(NC(=O)NCCC4(C)CC4)c(F)cc3C)cc(C)n2)ccn1 [Example 55],,
≤ 100,Cc1cc(F)c(NC(=O)NCCC2(C(F)(F)F)CC2)cc1-c1cc(OCCO)nc(C2CCOCC2)c1 [Example 24],,
